According to paper PMC10724246 (Nature Communications, 2023):
No end group written: not given here.

What was measured:
[1] = biological target: T1, αWD40 domain (α-COPI) (Schizosaccharomyces pombe, UniProt Q96WV5); assay: Biolayer interferometry (BLI) of S tail peptides with wild-type αWD40; type: binding, S. pombe
T1 construct: strep-tag (C); made in house; host or cells: Expi293 cells
T1 sequence (Q96WV5 1-327 limits assumed): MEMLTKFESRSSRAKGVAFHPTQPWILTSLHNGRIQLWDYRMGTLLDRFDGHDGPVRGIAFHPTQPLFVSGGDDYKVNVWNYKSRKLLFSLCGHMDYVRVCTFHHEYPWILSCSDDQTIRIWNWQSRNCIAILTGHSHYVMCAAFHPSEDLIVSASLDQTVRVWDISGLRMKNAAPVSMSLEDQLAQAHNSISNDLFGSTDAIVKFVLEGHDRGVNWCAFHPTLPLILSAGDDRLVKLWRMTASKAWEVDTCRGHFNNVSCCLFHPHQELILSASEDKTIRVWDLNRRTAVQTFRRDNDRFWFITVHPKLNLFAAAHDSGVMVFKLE
Protocol: Recombinant expression and purification of S. pombe αWD40 and S. cerevisiae β‘WD40 domains (both wild type and mutants) were carried out as described[43],[72],[75]. Briefly, αWD40 with a C-terminal strep-tag was expressed and purified from Expi293 cells using polyethyleneimine (PEI). The clarified cell lysate was subjected to affinity chromatography followed by size-exclusion chromatography (SEC) on a preparative grade Superdex-75 column.
BLI assays with biotinylated S peptides from Biomatik (USA) and purified coatomer WD40 domains were carried out as described. […] S peptides were immobilized on streptavidin (SA) biosensors (FortéBio, USA). Measurements were performed on the Octet RED96 system (FortéBio, USA). Data acquisition and data analysis were performed using Data Acquisition 11.1 suite and FortéBio Data Analysis 11.1 software suite respectively. All experiments were performed at 25 °C and 1000 rpm shake speed. Appropriate sensor and loading controls were applied.

[2] = system: WD40; settings: peer review response; ref Dey et al Communications Biology 2022; cited from earlier work
Text: page 26: dynamics/conformations of the tail. I see no need to perform experiments, but maybe this has been done (or other mutants been tested meanwhile)? Please comment at least! Response 3.21: We thank the reviewer for raising this point. We reported this BLI experiment in our previous publication, Dey et al Communications Biology 2022. […]

[3] = biological target: yeast β'WD40 domain; settings: published value, Supplementary Table S6; ref Ma & Goldberg, EMBO J 2013; cited from earlier work
[4] = biological target: yeast αWD40 domain; settings: published value, Supplementary Table S6; ref Ma & Goldberg, EMBO J 2013; cited from earlier work
[5] = biological target: T2, alpha-COP WD40 (Schizosaccharomyces pombe), Q96WV5; settings: modification not given
T2 chain: T1 sequence (Q96WV5 1-327 limits assumed)

[6] = immobilized biotinylated peptide, αWD40 analyte, pH 6.5, 25 °C
[7] = immobilized biotinylated peptide, αWD40 analyte, pH 7.0, 25 °C

In the case of GVKLHYE-NH2 [GVKLHYE (amidated)], the koff [1, 6] is reported as 0.88 ± 0.02 s⁻¹ and the kon [1, 6] is reported as 706.2 ± 56.3 10^3/Ms.

In the case of GVKLHYT (amidated), the “binding to αWD40 (in words)” value ([1]; Fig. 2M, listed as amidated wild-type S heptapeptide) is reported as “Loss of αWD40 binding”.

With `CC(C)C[C@H](NC(=O)[C@H](CCCCN)NC(=O)[C@@H](NC(=O)CNC(=O)[C@H](CCCCN)NC(=O)[C@H](CC(C)C)NC(=O)[C@@H](NC(=O)[C@@H]1CCCN1C(=O)[C@H](CCC(=O)O)NC(=O)[C@H](CO)NC(=O)[C@H](CC(=O)O)NC(=O)[C@H](CC(=O)O)NC(=O)[C@H](CCC(=O)O)NC(=O)[C@H](CC(=O)O)NC(=O)[C@H](Cc1ccccc1)NC(=O)[C@H](CCCCN)NC(=O)[C@H](CS)NC(=O)[C@H](CS)NC(=O)CCCC[C@@H]1SC[C@@H]2NC(=O)N[C@@H]21)C(C)C)C(C)C)C(=O)N[C@@H](Cc1c[nH]cn1)C(=O)N[C@@H](Cc1ccc(O)cc1)C(=O)N[C@@H](CCC(=O)O)C(=O)O` the Kd ([1]; Equilibrium KD, immobilized biotinylated peptide, αWD40 analyte, pH 7.0, 25 °C) was 0.1 ± 0.002 µM, the koff [1, 6] was 0.0037 ± 0.0002 s⁻¹ and the kon [1, 6] was 59.9 ± 1.3 10^3/Ms. The koff [1, 7] was 0.003 ± 0.0002 s⁻¹ and the kon [1, 7] was 60.8 ± 1.3 10^3/Ms.

In the case of GVKLHYA, the “WD40 binding in BLI assays (in words)” value [2] is listed as “modest enhancement”.

For R-R-S-F-I-D-E-K-K-M-P (RRSFIDEKKMP), the Kd [3] is given as 49 ± 2.2 µM and the Kd [4] is given as 64.5 ± 5.4 µM.

Work on GVKLHYT [Spike tail heptapeptide] yielded a Kd [5] of 1.4 µM.
